# Patent publication US20110251281A1, “Composite Material Comprising High-Molecular-Weight Matrix and Low-Molecular-Weight Organic Compound and Process For Producing Same” (NATIONAL INSTITUTE FOR MATERIALS SCIENCE, priority 2008, published 2011)
# Tests used:
# [1] = Composite formation of AlGltn/TSC matrix containing amino acid derivative after immersion in water; type: physicochemical; conditions: 100 mM amino acid derivative, 20 mM TSC, water at 4° C. for one day
# Experimental: High-molecular-weight matrices formed from alkali-treated gelatin (AlGltn; derived from pig bone) and TSC (citric acid derivative), in which an amino acid derivative was contained, were prepared. By immersing in water, DMSO was replaced by water and the amino acid was precipitated. The behavior of the high-molecular-weight matrices after the precipitation was observed by each type and concentration of the amino acid.
# 400 μl of a DMSO solution containing 15 w/v % AlGltn and 10% lactic acid was added with an amino acid derivative to give 100 mM in a 2 ml tube. The mixture was agitated and degassed. 100 μl of a 10% lactic acid-containing DMSO was added with TSC at 20 mM (4.84 mg) and agitated. The solution made by addition of the amino acid derivative to the AlGltn/10% lactic acid-containing DMSO solution, agitation, and degasification, was added with the TSC/10% lactic acid-containing DMSO solution. The mixture was agitated for 30 seconds and then degassed for 30 seconds. After leaving still for one day, the resulting high-molecular-weight matrix was taken out and immersed in water at 4° C. for one day. The gel was taken out and its behavior was observed.
# [2] = Am80 release from alkali-treated collagen composite materials in PBS, HPLC; type: physicochemical; conditions: PBS pH7.4, 37° C., in one day
# Experimental: The high-molecular-weight matrices containing the low-molecular-weight organic compound prepared in 2-1 mentioned above were dried in a desiccator and then heated in an oven at 80° C. for 10 min. These composite materials were used as samples for HPLC.
# The thus produced high-molecular-weight matrices were each transferred in a 250 mL polyethylene container, and 200 mL of PBS (pH7.4) was added thereto. These were heated in an incubator at 37° C. The supernatant thereof was sampled in a time course manner, and 50 μL each was assayed by HPLC.
# In the HPLC method, the Nacalai Tesque COSMOSIL Packed Column (Size: 4.6 I.D.×150 mm; Type: 5C18-AR II ATERS) was used as the column, and a 5% HOAc/CH3CN=35/65 (v/v) aqueous solution was used as the eluent. The flow rate was 1.00 mL/min, and the column temperature was 40.0° C. The detection was conducted by UV-visible spectroscopy.
# The elusion amount was calculated based on a calibration curve that had been formed in advance. Three kinds of drug/PBS (pH7.4) solutions were prepared within a concentration range from 1.14 μM to 569 μM, and assayed by HPLC. The condition for this assay was the same as the above. […]
# In the HPLC method, the Am80 elusion amount was calculated under the same conditions as for the above-mentioned method.
Composite formation [1],Am80 released [2] [%],SMILES
Present,–,CC(C)(C)OC[C@H](NC(=O)OCC1c2ccccc2-c2ccccc21)C(=O)O [FmocSer(tBu)OH]
Present,–,O=C(N[C@@H](Cc1c[nH]c2ccccc12)C(=O)O)OCC1c2ccccc2-c2ccccc21 [FmocTrpOH]
Present,–,CC[C@H](C)[C@H](NC(=O)OCC1c2ccccc2-c2ccccc21)C(=O)O [FmocIleOH]
–,49,"CC1(C)CCC(C)(C)c2cc(NC(=O)c3ccc(C(=O)O)cc3)ccc21 [Am80, Tamibarotene]"
Present,–,O=C(N[C@@H](Cc1ccccc1)C(=O)O)OCC1c2ccccc2-c2ccccc21 [FmocPheOH]
Absent,–,CC(=O)N[C@@H](Cc1ccc(O)cc1)C(N)=O [AcTyrNH2]
Absent,–,CC(=O)NC(Cc1c[nH]c2ccccc12)C(N)=O (stereo not shown) [AcTrpNH2]
